Results from patent US20240238310A1, “MODULATION OF SEX STEROID HORMONE PRODUCTION AND ACTIVITY FOR TREATING AND PREVENTING HERNIAS” (Northwestern University, priority 2020, published 2024).
Entries after “also recorded” stand apart in the source; their conditions may differ.

Tests used:
Arom^hum mice = test: Reversal of established scrotal hernias and LAMT fibrosis/atrophy in Arom^hum mice; assay type: in vivo, mouse
Experimental: FIG. 16. […] Arom^hum mice with small to moderate size of hernias were treated with placebo or letrozole for 12 weeks. (A) Schematic diagram depicts the schedule of drug administration. (B) The area of scrotal hernia in Arom^hum mice. (C) Representative photomicrographs of Masson's trichrome-stained LAMT sections of WT and Arom^hum mice. Quantification of the percentage of connective tissue or fibrotic area (D) or myofiber area (E) in WT and Arom^hummice. 10 representative high-power fields were analyzed in each tissue. One-way ANOVA with Tukey's multiple comparison test, **p<0.01, ***p<0.001. Scale bars, […]. n=5 mice per group.
FIG. 17. […] Arom^hum mice with small to moderate size of hernias were treated with placebo or letrozole for 3 weeks. (A) Schematic diagram depicts the schedule of drug administration. (B) The area of scrotal hernia in Arom^hum mice.
FIG. 18. E2/ER antagonist fulvestrant reverses the large size of scrotal hernias and rescues LAMT fibrosis and myocyte atrophy in Arom^hum mice. Arom^hum mice with large size of hernias were treated with placebo or fulvestrant for 12 weeks. (A) Schematic diagram depicts the schedule of drug administration. (B) The area of scrotal hernia in Arom^hum mice. (C) Representative photomicrographs of Masson's trichrome-stained LAMT sections of WT and Arom^hum mice. Quantification of the percentage of connective tissue or fibrotic area (D) in WT and Arom^hum mice. 10 representative high-power fields were analyzed in each tissue. (E) Hydroxyproline content in LAMT of WT and Arom^hum mice treated with fulvestrant. One-way ANOVA with Tukey's multiple comparison test, ***p<0.001, ****p<0.0001. n=5 mice per group.
(§1) FIG. 19. Aromatase inhibitor letrozole reverses the large size of scrotal hernias in Arom^hum mice. Arom^hum mice with large size of hernias were treated with placebo or letrozole for 12 weeks. (A) Schematic diagram depicts the schedule of drug administration. (B) The area of scrotal hernia in Arom^hum mice.
as §1, with “20. E2/ER antagonist raloxifene” for “19. Aromatase inhibitor letrozole”, “raloxifene” for “letrozole”, “3” for “12”
We treated Arom^hum mice with letrozole for 12 weeks. […] Raloxifene is a selective estrogen receptor modulator (SERM) and is currently used to prevent and treat osteoporosis in postmenopausal women.
We treated Arom^hum mice with fulvestrant for 12 weeks when the hernia area was over 200 mm^2. Large hernias were completely disappeared after 3- to 4-week of fulvestrant administration. […] We measured the total amount of collagen (largely type I and III), a major component of ECM, through measuring the content of hydroxyproline(1).

[1] = system: LAMT primary fibroblasts from Arom^hum mice; test: mRNA levels of estrogen-responsive and fibrotic genes in LAMT primary fibroblasts after E2 antagonist treatment; assay type: cell-based, mouse; conditions: 100 nM ICI 182,780, pretreated 2 hours before addition of E2 (10 nM)
Experimental: FIG. 10. mRNA levels of estrogen-responsive genes [Pgr (A, E) and Greb1 (B, F)] and fibrotic genes [Spon2 (C, G), Kiss1 (D), and Eln (H)] in LAMT primary fibroblasts from Arom^hum mice after treatment with 100 nM ICI 182,780 (ICI) or […] MPP in the presence or absence of E2 (10 nM). Cells were pretreated with ICI 182,780 or MPP for 2 hours before the addition of E2. Veh, vehicle. *P<0.05, **P<0.01. GAPDH mRNA levels served as controls.
Experiment 1a2: Does the general E2 antagonist fulvestrant, which downregulates and blocks ER, or ERα-selective E2 antagonist MPP prevent, arrest or reverse LAMT muscle fibrosis, atrophy and inguinal hernias in male Arom^hum mice? […] Here, we will define whether the effects of E2 on hernia formation in LAMT is mediated via ERα in vivo. We will treat Arom^hum or WT mice with vehicle, fulvestrant (ICI 182,780), or MPP. […] Circulating and muscle tissue E2 levels will be measured using LC-MS^2. To validate the effects of each treatment, protein expression of ERα and E2/ERα target genes (Ccnd1, Pgr, and Greb1), and cell proliferation markers (Ki67 and PCNA) will be determined by IHC and immunoblotting. Fibrotic-related genes (Kiss1, Ren1, Emb, Timp1, Spon2, and Eln), the ECM marker Col1a1, and the myocyte marker Myh will be assessed using qPCR and IHC in LAMT after fulvestrant, MPP, and/or letrozole treatment. […]

C[C@]12CC[C@@H]3c4ccc(O)cc4C[C@@H](CCCCCCCCC[S+]([O-])CCCC(F)(F)C(F)(F)F)[C@H]3[C@@H]1CC[C@@H]2O (stereo partly drawn) [fulvestrant]
myofiber atrophy / myofiber cross-section area (Arom^hum mice; Arom^hum mice with large hernias, fulvestrant 12 weeks, FIG. 18C): completely reversed myofiber atrophy; also recorded: increase in myofiber cross-section area
total collagen content in LAMT (hydroxyproline assay) (Arom^hum mice; Arom^hum mice with large hernias, fulvestrant 12 weeks, FIG. 18E): decreased to normal levels similar to WT mice
established fibrosis in the LAMT (Arom^hum mice; Arom^hum mice with large hernias, fulvestrant 12 weeks, FIGS. 18C and D): completely reversed with fulvestrant treatment; also recorded: decrease in muscle fibrosis
reversal of large and severe hernias (>200 mm^2) (Arom^hum mice; Arom^hum mice, fulvestrant alone for 12 weeks, started when hernia area was over 200 mm^2, FIG. 18): can reverse large and severe hernias
time of administration after which large hernias completely disappeared (Arom^hum mice; Arom^hum mice, hernia area over 200 mm^2): 3- to 4 week
E2-induced expression of estrogen-responsive genes (Pgr and Greb1) and fibrotic genes (Spon2, Kiss1, Eln) [1]: significantly decreased E2-induced expression of estrogen-responsive genes (Pgr and Greb1) and fibrotic genes (Spon2, Kiss1 and, Eln)
